Entries after “also recorded” stand apart in the source; their conditions may differ.

For experiment [1], the system named is cortical neurons. The experiment is described as follows: Dendritogenesis assay, Sholl analysis. Type of experiment: cell-based, rat. Conditions: 10 μM; for Emax at 10 µM: Rattus norvegicus, Cortical neurone, Nmax with vehicle (DMSO) = 0% and ketamine = 100%, read-out: % efficacy in sholls; for dendritic arbor complexity / neuronal growth (Nmax of Sholl plots): cortical neurons. The text has this:
Dendritogenesis Assays. Phenotypic screening has historically proven more successful than target-based approaches for identifying drugs with novel mechanisms of action. Having established a simple and robust method for accessing isoDMT analogs, tested next was their ability to increase dendritic arbor complexity in cultures of cortical neurons using a phenotypic assay. Following treatment, neurons were fixed and visualized using an antibody against MAP2—a cytoskeletal protein localized to the somatodendritic compartment of neurons. Sholl analysis was then performed, and the maximum number of crossings (Nmax) was used as a quantitative metric of dendritic arbor complexity. For statistical comparisons between specific compounds, the raw Nmax values were compared. Percent efficacies were determined by setting the Nmax values for the vehicle (DMSO) and positive (ketamine) controls equal to 0% and 100%, respectively.
Animals. For the dendritogenesis experiments, timed pregnant Sprague Dawley rats were obtained from Charles River Laboratories (Wilmington, Mass.). For the head-twitch response assay, male and female C57BL/6J mice were obtained from Jackson Laboratory (Sacramento, Calif.). Mice were housed in a temperature and humidity-controlled room maintained on a 12-h light/dark cycle in groups of 4-5 (same sex). Animals weighed between 17 and 30 g at the time of the experiments. All experimental procedures involving rodents were approved by the UC Davis Institutional Animal Care and Use Committee (IACUC) and adhered to principles described in the National Institutes of Health Guide for the Care and Use of Laboratory Animals. The University of California, Davis and the University of California, San Francisco are accredited by the Association for Assessment and Accreditation of Laboratory Animal Care International (AAALAC).
Dendritogenesis—Sholl Analysis. Dendritogenesis experiments were performed following a previously published method with slight modifications. Neurons were plated in 96-well format (200 μL of media per well) at a density of approximately 15,000 cells/well in Neurobasal (Life Technologies) containing 1% penicillin-streptomycin, 10% heat-inactivated fetal bovine serum, and 0.5 mM glutamine. After 24 h, the medium was replaced with Neurobasal containing 1× B27 supplement (Life Technologies), 1% penicillin-streptomycin, 0.5 mM glutamine, and 12.5 μM glutamate. After 3 days in vitro (DIV3), the cells were treated with compounds. All compounds tested in the dendritogenesis assays were treated at 10 μM unless noted otherwise. Stock solutions of the compounds in DMSO were first diluted 100-fold in Neurobasal before an additional 10-fold dilution into each well (total dilution=1:1000; 0.1% DMSO concentration). Treatments were randomized. After 1 h, the media was removed and replaced with new Neurobasal media containing 1× B27 supplement, 1% penicillin-streptomycin, 0.5 mM glutamine, and 12.5 μM glutamate. The cells were allowed to grow for an additional 71 h. At that time, neurons were fixed by removing 80% of the media and replacing it with a volume of 4% aqueous paraformaldehyde (Alfa Aesar) equal to 50% of the working volume of the well. Then, the cells were incubated at room temperature for 20 min before the fixative was aspirated and each well washed twice with DPBS. Cells were permeabilized using 0.2% Triton X-100 (ThermoFisher) in DPBS for 20 minutes at room temperature without shaking. Plates were blocked with antibody diluting buffer (ADB) containing 2% bovine serum albumin (BSA) in DPBS for 1 h at room temperature. Then, plates were incubated overnight at 4° C. with gentle shaking in ADB containing a chicken anti-MAP2 antibody (1:10,000; EnCor, CPCA-MAP2). The next day, plates were washed three times with DPBS and once with 2% ADB in DPBS. […]

Experiment [2] has as its system 5HT2A sensor. The experiment is described as follows: 5HT2A sensor assay, agonist mode (sLight1.3s HEK293T stable line). To be noted: for activation of 5HT2A sensor assay in agonist mode at 10 μM: 10 μM of compound (FIG. 11). Type of experiment: cell-based. Here is the method: In some embodiments, hallucinogenic potential of a compound of the present invention is determined in vitro. In some embodiments, hallucinogenic potential of a compound of the present invention is determined using a 5HT2A sensor assay. In some embodiments, the 5HT2A sensor assay is in an agonist mode or an antagonist mode. In some embodiments, the 5HT2A sensor assay is in an agonist mode.
(§1) 5HT2A Sensor Assays. HEK293T (ATCC) 5HT2A sensor stable line (sLight1.3s) was generated via lentiviral transduction of HIV-EF1α-sLight1.3 and propagated from a single colony. Lentivirus was produced using 2nd generation lentiviral plasmids pHIV-EF1α-sLight1.3, pHCMV-G, and pCMV-deltaR8.2.
(§2) For the screening of the 41 compounds, sLight1.3s cells were plated in 96-well plates at a density of 40000 24-hours prior to imaging. On the day of imaging, compounds solubilized in DMSO were diluted from the 100 mM stock solution to working concentrations of 1 mM, 100 μM and 1 μM with a DMSO concentration of 1%. Immediately prior to imaging, cells growing in DMEM (Gibco) were washed 2× with HBSS (Gibco) and in agonist mode 180 μL of HBSS or in antagonist mode 160 μL of HBSS was added to each well after the final wash. For agonist mode, images were taken before and after the addition of the 20 μL compound working solution into the wells containing 180 μL HBSS. This produced final compound concentrations of 100 μM, 10 μM and 100 nM with a DMSO concentration of 0.1%. For antagonist mode, images were taken before and after addition of 20 μL of 900 nM 5-HT and again after 20 μL of the compound working solutions to produce final concentrations of 100 nM for 5HT and 100 μM, 10 μM and 100 nM for the compounds with a DMSO concentration of 0.1%. Each compound was tested in triplicates (3 wells) for each concentration (100 μM, 10 μM and 100 nM). Additionally, within each plate, 100 nM 5HT and 0.1% DMSO controls were also imaged.
(§3) Imaging was performed using the Leica DMi8 inverted microscope with a 40× objective using the FITC preset with an excitation of 460 nm and emission of 512-542 nm. For each well, the cellular membrane where the 5HT2A sensor is targeted was autofocused using the adaptive focus controls and 5 images from different regions within the well were taken with each image processed from a 2×2 binning.
(§4) For data processing, the membranes from each image was segmented and analyzed using a custom algorithm written in MATLAB producing a single raw fluorescence intensity value. For each well the 5 raw fluorescence intensity values generated from the 5 images were averaged and the change in fluorescence intensity (dFF) was calculated as: dFF=(Fsat−Fapo)/Fapo
(§5) For both agonist and antagonist modes, the fluorescence intensity values before compound addition in HBSS only were used as the Fapo values while the fluorescence intensity values after compound addition were used as the Fsat values.
(§6) For agonist mode, data are as percent activation relative to 5HT, where 0 is the average of the DMSO wells and 100 is the average of the 100 uM 5HT wells. For antagonist mode, the inactivation score was calculated as: Inactivation score=(dFFF(Compound+5HT)−dFF(5HT))/dFF(5HT)

In experiment [3] the test system is 5HT2A sensor. The experiment is described as follows: 5HT2A sensor assay, antagonist mode (sLight1.3s HEK293T stable line). Type of experiment: cell-based. To be noted: 10 μM of compound (FIG. 13). The method, then: In some embodiments, the 5HT2A sensor assay is in an antagonist mode.
as §1, §2, §3, §4, §5, §6

`CN(C)CCn1ccc2cc(F)c(F)cc21` [Example 17, 2-(5,6-difluoro-1H-indol-1-yl)-N,N-dimethylethan-1-amine]: the Emax at 10 µM in experiment [1] was 84%. For `CNC(C)Cc1ccc2c(c1)OCO2` [L-MDMA, reference compound], in experiment [2], the “activation of 5HT2A sensor assay in agonist mode at 10 μM” value (“activation … at 10 μM” below) is reported as “do not activate the 5HT2A sensor assay in agonist mode”.

`COc1ccc2c(ccn2C[C@@H](C)N(C)C)c1` [Example 32, (R)-1-(5-methoxy-1H-indol-1-yl)-N,N-dimethylpropan-2-amine]: the Emax at 10 µM in experiment [1] was 88%.

Take `CN(C)CCc1cn(C)c2ccccc12` [Example 27, N,N-dimethyl-2-(1-methyl-1H-indol-3-yl)ethan-1-amine, reference compound]: in experiment [1], the Emax at 10 µM turned out to be 73% and the “dendritic arbor complexity / neuronal growth (Nmax of Sholl plots)” value is “increase dendritic arbor complexity to a comparable extent as DMT (1); also recorded: increased dendritic arbor complexity to a comparable extent as 1”. As to `C[C@H](Cn1ccc2cc(F)ccc21)N(C)C` [Example 33, (R)-1-(5-fluoro-1H-indol-1-yl)-N,N-dimethylpropan-2-amine], in experiment [1], the Emax at 10 µM is 65%. On to `CN(C)CCn1cccc1` [Example 23, N,N-dimethyl-2-(1H-pyrrol-1-yl)ethan-1-amine], for which, in experiment [1], the Emax at 10 µM worked out at 64% and the “dendritic arbor complexity / neuronal growth (Nmax of Sholl plots)” value is listed as “minimal effect on the ability of these molecules to promote neuronal growth”. Turning to `CCN(CC)C(=O)[C@@H]1C=C2c3cccc4[nH]c(Br)c(c34)C[C@H]2N(C)C1` [BOL148, reference compound], the “activation … at 10 μM” value in experiment [2] is listed as “do not activate the 5HT2A sensor assay in agonist mode”. For the same compound, the “competition with 5HT binding to 5HT2A, antagonist mode sensor assay at 10 μM” value (“competition with 5HT binding to 5HT2A” for short) in experiment [3] is “compete with 5HT binding to 5HT2A”. For `CN(C)CCn1ccc2c(F)cccc21` [Example 12, 2-(4-fluoro-1H-indol-1-yl)-N,N-dimethylethan-1-amine], the Emax at 10 µM in experiment [1] was determined as 37%. On to `CN(C)CCn1cc(C(=O)C(=O)N(C)C)c2ccccc21` [Example 21, 2-(1-(2-(dimethylamino)ethyl)-1H-indol-3-yl)-N,N-dimethyl-2-oxoacetamide], for which, in experiment [1], the Emax at 10 µM came to 72% and the “dendritic arbor complexity / neuronal growth (Nmax of Sholl plots)” value is recorded as “well tolerated”. For the compound `CN(C)CCn1ccc2cc(OCc3ccccc3)ccc21` [Example 9, 2-(5-(benzyloxy)-1H-indol-1-yl)-N,N-dimethylethan-1-amine], the Emax at 10 µM in experiment [1] was 78%. Regarding `COc1cc(CC(C)N)c(OC)cc1I` (centres unmarked) [DOI, reference compound], the “activation … at 10 μM” value in experiment [2] is on record as “activate the 5HT2A sensor assay in agonist mode”. As for `O=C(c1ccc(F)cc1)C1CCN(CCn2c(=O)[nH]c3ccccc3c2=O)CC1` [Ketanserin, reference compound], the “activation … at 10 μM” value in experiment [2] was “do not activate the 5HT2A sensor assay in agonist mode”. The “competition with 5HT binding to 5HT2A” value in experiment [3] is given as “compete with 5HT binding to 5HT2A”. As to `CCN(CC)C(=O)[C@@H]1C=C2c3cccc4[nH]cc(c34)C[C@H]2N(C)C1` [LSD, lysergic acid diethylamide, reference compound], the “activation … at 10 μM” value in experiment [2] is “activate the 5HT2A sensor assay in agonist mode”. In addition, the “activation of 5HT2A sensor assay in agonist mode (dose response)” value in experiment [2] (dose response (FIG. 10)) is recorded as “activate”.

For `CN(C)CCn1ccc2cccc(F)c21` [Example 15, 2-(7-fluoro-1H-indol-1-yl)-N,N-dimethylethan-1-amine], the Emax at 10 µM in experiment [1] stood at 85%.

With `CN(C)CCn1ccc2cc(F)ccc21` [Example 13, 2-(5-fluoro-1H-indol-1-yl)-N,N-dimethylethan-1-amine], in experiment [1], the Emax at 10 µM was found to be 75%; the “dendritic arbor complexity / neuronal growth (Nmax of Sholl plots)” value is “performed identically to 28 and 29”. Turning to `CN(C)CCn1ccc2cccc(OCc3ccccc3)c21` [Example 11, 2-(7-(benzyloxy)-1H-indol-1-yl)-N,N-dimethylethan-1-amine], in experiment [1], the Emax at 10 µM came out at 131%. Take `CCN(CC)CCc1c[nH]c2cc(F)ccc12` [Example 6-F-DET, reference compound]: in experiment [2], the “activation … at 10 μM” value is “do not activate the 5HT2A sensor assay in agonist mode”. The “competition with 5HT binding to 5HT2A” value in experiment [3] is on record as “compete with 5HT binding to 5HT2A”. `CC(C)CCn1ccc2ccccc21` [Example 25, 1-isopentyl-1H-indole]: in experiment [1], the Emax at 10 µM was 17% and the “dendritic arbor complexity / neuronal growth (Nmax of Sholl plots)” value is “did not promote dendritogenesis”.

Regarding `CN[C@H](C)Cc1ccc2c(c1)OCO2` [R-MDMA, reference compound], the “activation … at 10 μM” value in experiment [2] is “do not activate the 5HT2A sensor assay in agonist mode”. `CN(C)CCn1ccc2c(F)cc(F)cc21` [Example 18, 2-(4,6-difluoro-1H-indol-1-yl)-N,N-dimethylethan-1-amine]: the Emax at 10 µM in experiment [1] was found to be 62%. Still for that read-out and setting: the figure for `CN(C)CCc1c[nH]c2cc(F)ccc12` [Example 29, 2-(6-fluoro-1H-indol-3-yl)-N,N-dimethylethan-1-amine, reference compound] is 81%; for `CN(C)CCn1ccc2c(OCc3ccccc3)cccc21` [Example 8, 2-(4-(benzyloxy)-1H-indol-1-yl)-N,N-dimethylethan-1-amine] it is 38%. Same read-out and setting: the figure for `CN(C)CCn1ccc2ccc(OCc3ccccc3)cc21` [Example 10, 2-(6-(benzyloxy)-1H-indol-1-yl)-N,N-dimethylethan-1-amine] is 65%.

Source of the values: patent publication US11254640B2, “N-substituted indoles and other heterocycles for treating brain disorders” (The Regents of the University of California, priority 2019, dated 2022).
